Key:
[1] = tested on: NF-κB pathway (SEAP) in THP1-Dual cells; assay: THP-1 Dual cell SEAP assay (L18-MDP stimulated); type: cell-based; conditions: Homo sapiens, THP1-Dual, read-out: NF-κB THP1 IC50 bin
Summary of the method: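 THP1-Dual cells (~25,000/well) were preincubated 30 min with serially diluted compounds, then stimulated with 10 ng/mL L18-MDP (final) for 20-24 h at 37 °C. Supernatant SEAP was read with QUANTI-Blue at OD 620-655 nm after 2 h. IC50 came from non-linear fits of % inhibition versus DMSO/L18-MDP controls after media-blank subtraction.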

[2] = target: T1, binding of His-XIAP(BIR2)-avi fusion protein to GST-RIPK2 fusion protein (RIPK2/XIAP) (Homo sapiens, UniProt O43353); assay: RIPK2-XIAP binding competition PPI assay (TR-FRET); conditions: RIPK2/XIAP binding competition PPI assay; for Emax: Amax, read-out: PPI Amax bin; for IC50: read-out: PPI IC50 bin
T1 construct: made in house; host or cells: baculovirus infected Sf9 cells
T1 sequence (O43353 1-310 limits assumed): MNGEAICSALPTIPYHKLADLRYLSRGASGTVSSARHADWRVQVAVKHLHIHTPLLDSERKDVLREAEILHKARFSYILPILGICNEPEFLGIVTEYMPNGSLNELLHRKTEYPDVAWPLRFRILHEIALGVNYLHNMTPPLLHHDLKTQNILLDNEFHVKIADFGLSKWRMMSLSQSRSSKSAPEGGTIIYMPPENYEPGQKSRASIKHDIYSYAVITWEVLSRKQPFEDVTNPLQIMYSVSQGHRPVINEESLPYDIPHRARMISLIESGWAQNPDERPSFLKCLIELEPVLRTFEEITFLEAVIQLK
Summary of the method: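 Compounds (in DMSO, 100-fold stock) incubated 120 min at 23 °C with 1 nM GST-RIPK2 (aa 1-310) and 25 nM His-XIAP(BIR2 aa 152-231)-avi, plus anti-His-XL665 and anti-GST-Tb, in pH 7.5 Tris buffer. Read-out: 665/520 nm emission ratio. Normalized to no-inhibitor (0%) and 50 nM GSK583 (−100%); Amax binned A–D.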

[3] = target: T2, GST-RIPK2 fusion protein (human RIPK2, amino acids 1-310) (Homo sapiens, UniProt O43353); assay: RIPK2 binding competition assay (TR-FRET, Tracer 199 displacement); conditions: 10 nM Tracer 199, 1 nM GST-RIPK2, read-out: RIPK2 IC50
T2 construct: made in house; host or cells: baculovirus infected Sf9 cells
T2 sequence (O43353 1-310): as the sequence (O43353 1-310 limits assumed) above
Excerpt: The ability of selected compounds of Formula (I) to inhibit the binding of an Alexa647-labelled ATP-competitive kinase inhibitor to a GST-RIPK2 fusion protein was quantified employing the TR-FRET-based RIPK2 binding competition assay as described in the following paragraphs.
Recombinant fusion protein of N-terminal Glutathione-S-Transferase (GST) and a fragment of human RIPK2 (amino acids 1-310 of accession number 043353), expressed in baculovirus infected Sf9 cells, purified via glutathione affinity chromatography, was used as GST-RIPK2 fusion protein. Tracer 199 from Life Technologies (catalogue no. PR9115B) was used as Alexa647-labelled ATP-competitive kinase inhibitor.
For the assay, 50 nL of a 100-fold concentrated solution of each test compound in DMSO was pipetted into either a black low volume 384-well microtiter plate or a black 1536-well microtiter plate (both Greiner Bio-One, Frickenhausen, Germany), 3 μL solution of Tracer 199 (16.7 nM=>final concentration in 5 μL assay volume is 10 nM) in aqueous assay buffer (25 mM Tris/HCl pH 7.5, 10 mM magnesium chloride (MgCl2), 5 mM β-glycerophosphate, 2.5 mM dithiothreitol (DTT), 0.5 mM ethylene glycol-bis(2-aminoethylether)-N,N,N′,N′-tetraacetic acid (EGTA), 0.5 mM sodium ortho-vanadate, 0.01% (w/v) bovine serum albumin (BSA), 0.005% (w/v) Pluronic F-127 (Sigma)) were added. Then the binding competition was started by the addition of 2 μL of a solution of the GST-RIPK2 fusion protein (2.5 nM=>final conc. in the 5 μL assay volume is 1 nM) and of Anti-GST-Tb (1.25 nM=>final conc. in the 5 μL assay volume is 0.5 nM), a Lumi4®—Tb cryptate-conjugated anti-GST antibody from PerkinElmer (catalogue no 61GSTTAH), in assay buffer.
The resulting mixture was incubated 45 min at 22° C. to allow the formation of a complex between the Tracer 199, the fusion protein and Anti-GST-Tb. Subsequently, the amount of this complex was evaluated by measurement of the resonance energy transfer from the Tb-cryptate to the Tracer 199. Therefore, the fluorescence emissions at 620 nm and 665 nm after excitation at 337 nm were measured in a TR-FRET reader, e.g. a Pherastar FS (BMG Labtechnologies, Offenburg, Germany) or a Viewlux (PerkinElmer). The ratio of the emissions at 665 nm and at 620 nm was taken as the measure of the amount of the complex. The data were normalized (assay reaction without inhibitor=0% activity, all other assay components but no GST-RIPK2 fusion protein=−100% activity).
Table A1 below lists IC50 values of selected compounds of Formula (I) measured in the RIPK2 binding competition assay.

Structure (SMILES) | IC50 [1] | Emax [2] | IC50 [2] | IC50 [3]
Cn1cc(COc2cc3ncc(-c4cc(F)c(N)nc4F)n3cc2S(=O)(=O)C(C)(C)C)cn1 [Example 30, 5-(6-(tert-butylsulfonyl)-7-((1-methyl-1H-pyrazol-4-yl)methoxy)imidazo[1,2-a]pyridin-3-yl)-3,6-difluoropyridin-2-amine] | 50 to 250 nM | > 80% | 2.5 to 20 nM | 2.5 to 20 nM
CC(C)(C)S(=O)(=O)c1cn2c(-c3cc(F)c(N)nc3F)cnc2cc1-c1cn[nH]c1 [Example 31, 5-(6-(tert-butylsulfonyl)-7-(1H-pyrazol-4-yl)imidazo[1,2-a]pyridin-3-yl)-3,6-difluoropyridin-2-amine] | > 1000 nM | > 80% | 2.5 to 20 nM | 2.5 to 20 nM
CC(C)(C)S(=O)(=O)c1cn2c(-c3cc(F)c(N)nc3F)cnc2cc1OCC1COC1 [Example 32, 5-(6-(tert-butylsulfonyl)-7-(oxetan-3-ylmethoxy)imidazo[1,2-a]pyridin-3-yl)-3,6-difluoropyridin-2-amine] | 50 to 250 nM | > 80% | 2.5 to 20 nM | 1 to 2.5 nM
CC(C)(C)S(=O)(=O)c1cn2c(-c3cc(F)c(N)nc3F)cnc2cc1OC1COC1 [Example 33, 5-(6-(tert-butylsulfonyl)-7-(oxetan-3-yloxy)imidazo[1,2-a]pyridin-3-yl)-3,6-difluoropyridin-2-amine] | > 1000 nM | > 80% | 2.5 to 20 nM | 2.5 to 20 nM
C[C@H](O)CCOc1cc2ncc(-c3cc(F)c(N)nc3F)n2cc1S(=O)(=O)C(C)(C)C [Example 34, (S)-4-((3-(6-amino-2,5-difluoropyridin-3-yl)-6-(tert-butylsulfonyl)imidazo[1,2-a]pyridin-7-yl)oxy)butan-2-ol] | 250 to 1000 nM | > 80% | 2.5 to 20 nM | 2.5 to 20 nM
COC1(COc2cc3ncc(-c4cc(F)c(N)nc4F)n3cc2S(=O)(=O)C(C)(C)C)COC1 [Example 35, 5-(6-(tert-butylsulfonyl)-7-((3-methoxyoxetan-3-yl)methoxy)imidazo[1,2-a]pyridin-3-yl)-3,6-difluoropyridin-2-amine] | 250 to 1000 nM | > 80% | 2.5 to 20 nM | 2.5 to 20 nM
C[C@@H](O)CCOc1cc2ncc(-c3cc(F)c(N)nc3F)n2cc1S(=O)(=O)C(C)(C)C [Example 36, (R)-4-((3-(6-amino-2,5-difluoropyridin-3-yl)-6-(tert-butylsulfonyl)imidazo[1,2-a]pyridin-7-yl)oxy)butan-2-ol] | 50 to 250 nM | > 80% | 2.5 to 20 nM | 1 to 2.5 nM
CC(C)(C)S(=O)(=O)c1cn2c(-c3cc(F)c(N)nc3F)cnc2cc1-c1cc[nH]n1 [Example 37, 5-(6-(tert-butylsulfonyl)-7-(1H-pyrazol-3-yl)imidazo[1,2-a]pyridin-3-yl)-3,6-difluoropyridin-2-amine] | > 1000 nM | > 80% | > 20 nM | > 20 nM
CC(C)(C)S(=O)(=O)c1cn2c(-c3cc(F)c(N)nc3F)cnc2cc1OCC1(O)COC1 [Example 38, 3-(((3-(6-amino-2,5-difluoropyridin-3-yl)-6-(tert-butylsulfonyl)imidazo[1,2-a]pyridin-7-yl)oxy)methyl)oxetan-3-ol] | 50 to 250 nM | > 80% | 2.5 to 20 nM | 1 to 2.5 nM
CC(C)(C)S(=O)(=O)c1cn2c(-c3cc(F)c(N)nc3F)cnc2cc1CO [Example 39, (3-(6-amino-2,5-difluoropyridin-3-yl)-6-(tert-butylsulfonyl)imidazo[1,2-a]pyridin-7-yl)methanol] | > 1000 nM | > 80% | > 20 nM | > 20 nM
COc1cc2nc(N)c(-c3cc(F)c(N)nc3F)n2cc1S(=O)(=O)C(C)(C)C [Example 40, 3-(6-amino-2,5-difluoropyridin-3-yl)-6-(tert-butylsulfonyl)-7-methoxyimidazo[1,2-a]pyridin-2-amine] | > 1000 nM | 55 to 80% | > 20 nM | > 20 nM
CC(C)(C)S(=O)(=O)c1cn2c(-c3cc(F)c(N)nc3F)cnc2cc1OCCN1CC(O)C1 [Example 41, 1-(2-((3-(6-amino-2,5-difluoropyridin-3-yl)-6-(tert-butylsulfonyl)imidazo[1,2-a]pyridin-7-yl)oxy)ethyl)azetidin-3-ol] | > 1000 nM | > 80% | 2.5 to 20 nM | 2.5 to 20 nM
CN(C)C(=O)c1cc2ncc(-c3cc(F)c(N)nc3F)n2cc1S(=O)(=O)C(C)(C)C [Example 42, 3-(6-amino-2,5-difluoropyridin-3-yl)-6-(tert-butylsulfonyl)-N,N-dimethylimidazo[1,2-a]pyridine-7-carboxamide] | > 1000 nM | 55 to 80% | > 20 nM | > 20 nM
CC(C)(C)S(=O)(=O)c1cn2c(-c3cc(F)c(N)nc3F)cnc2cc1OC1CCN(CCO)C1 (stereo not shown) [Example 43, 2-(3-((3-(6-amino-2,5-difluoropyridin-3-yl)-6-(tert-butylsulfonyl)imidazo[1,2-a]pyridin-7-yl)oxy)pyrrolidin-1-yl)ethan-1-ol] | > 1000 nM | > 80% | 2.5 to 20 nM | 2.5 to 20 nM
CC(C)(C)S(=O)(=O)c1cn2c(-c3cc(F)c(N)nc3F)cnc2cc1C(=O)NCCO [Example 44, 3-(6-amino-2,5-difluoropyridin-3-yl)-6-(tert-butylsulfonyl)-N-(2-hydroxyethyl)imidazo[1,2-a]pyridine-7-carboxamide] | > 1000 nM | > 80% | > 20 nM | > 20 nM
C[C@H](O)COc1cn2ncc(-c3cc(F)c(N)nc3F)c2cc1S(=O)(=O)C(C)(C)C [Example 45, (S)-1-((3-(6-amino-2,5-difluoropyridin-3-yl)-5-(tert-butylsulfonyl)pyrazolo[1,5-a]pyridin-6-yl)oxy)propan-2-ol] | 50 to 250 nM | > 80% | 1 to 2.5 nM | 1 to 2.5 nM
C[C@H](O)COc1cn2ncc(-c3cc(Cl)c(N)nc3F)c2cc1S(=O)(=O)C(C)(C)C [Example 46, (S)-1-((3-(6-amino-5-chloro-2-fluoropyridin-3-yl)-5-(tert-butylsulfonyl)pyrazolo[1,5-a]pyridin-6-yl)oxy)propan-2-ol] | 50 to 250 nM | > 80% | 1 to 2.5 nM | 1 to 2.5 nM
CC(C)(CO)COc1cc2ncc(-c3cc(F)c(N)nc3F)n2cc1S(=O)(=O)C(C)(C)C [Example 47, 3-((3-(6-amino-2,5-difluoropyridin-3-yl)-6-(tert-butylsulfonyl)imidazo[1,2-a]pyridin-7-yl)oxy)-2,2-dimethylpropan-1-ol] | 50 to 250 nM | > 80% | 1 to 2.5 nM | 1 to 2.5 nM
CCC(CO)COc1cc2ncc(-c3cc(F)c(N)nc3F)n2cc1S(=O)(=O)C(C)(C)C (stereo not shown) [Example 48, 2-(((3-(6-amino-2,5-difluoropyridin-3-yl)-6-(tert-butylsulfonyl)imidazo[1,2-a]pyridin-7-yl)oxy)methyl)butan-1-ol] | 50 to 250 nM | > 80% | 2.5 to 20 nM | 1 to 2.5 nM
